# Key:
# Assay in all cases: Cell growth assay
# Assay type in all cases: cell-based
# SNU-398 = settings: Homo sapiens, 72 h; SNU-398, RAF WT, RAS WT, 3-day; read-out: gIC50
# Outline: (§1)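 Inhibition of cell growth is given as gIC50. It was measured by CellTiter-Glo at t = 0 and 72 h.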
# SaOS2 = settings: Homo sapiens, SAOS-2, 72 h; SaOS2, RAF WT, RAS WT, 3-day; read-out: gIC50
# Outline: as §1
# SNU-1 = settings: Homo sapiens, SNU1, 72 h; SNU-1, RAF WT, RAS WT, 3-day; read-out: gIC50
# Outline: as §1
# SK-UT-1 = settings: Homo sapiens, 72 h; SK-UT-1, RAF WT, RAS WT, 3-day; read-out: gIC50
# Outline: as §1
# ES-2 = settings: Homo sapiens, 72 h; ES-2, BRAF(V600E), RAS WT, 3-day; read-out: gIC50
# Outline: as §1
# U251 = settings: Homo sapiens, U-251, 72 h; U251, RAF WT, RAS WT, 3-day; read-out: gIC50
# Outline: as §1
# MCF-7 = settings: Homo sapiens, MCF7, 72 h; MCF-7, RAF WT, RAS WT, 3-day; read-out: gIC50
# Outline: as §1
# SNB-19 = settings: Homo sapiens, 72 h; SNB-19, RAF WT, RAS WT, 3-day; read-out: gIC50
# Outline: as §1
# OV-90 = settings: Homo sapiens, 72 h; OV-90, BRAF(del486-490), RAS WT, 3-day; read-out: gIC50
# Outline: as §1
# NCI-H226 = settings: Homo sapiens, 72 h; NCI-H226, RAF WT, RAS WT, 3-day; read-out: gIC50
# Outline: as §1
# 647-V = settings: Homo sapiens, 72 h, RAF WT, RAS WT, 3-day, read-out: gIC50
# Outline: as §1
# 786-O = settings: Homo sapiens, 786-0, 72 h, RAF WT, RAS WT, 3-day, read-out: gIC50
# Outline: as §1
# SW-780 = settings: Homo sapiens, SW780, 72 h; SW-780, RAF WT, RAS WT, 3-day; read-out: gIC50
# Outline: as §1
# RD = settings: Homo sapiens, 72 h, RAF WT, RAS WT, 3-day, read-out: gIC50
# Outline: as §1
# MC/CAR = settings: Homo sapiens, 72 h, RAF WT, RAS WT, 3-day, read-out: gIC50
# Outline: as §1
# CHL-1 = settings: Homo sapiens, 72 h; CHL-1, RAF WT, RAS WT, 3-day; read-out: gIC50
# Outline: as §1
# MDA-MB-175 VII = settings: Homo sapiens, 72 h, RAF WT, RAS WT, 3-day, read-out: gIC50
# Outline: as §1
# NCI-H661 = settings: Homo sapiens, 72 h; NCI-H661, RAF WT, RAS WT, 3-day; read-out: gIC50
# Outline: as §1
# Calu-3 = settings: Homo sapiens, 72 h; Calu-3, RAF WT, RAS WT, 3-day; read-out: gIC50
# Outline: as §1
# P3HR-1 = settings: Homo sapiens, 72 h; P3HR-1, RAF WT, RAS WT, 3-day; read-out: gIC50
# Outline: as §1
# DOTC 24510 = settings: Homo sapiens, DoTc2-4510, 72 h; DOTC 24510, RAF WT, RAS WT, 3-day; read-out: gIC50
# Outline: as §1
# SCC-12 = settings: Homo sapiens, SCC12, 72 h; SCC-12, RAF WT, RAS WT, 3-day; read-out: gIC50
# Outline: as §1
# GDM-1 = settings: Homo sapiens, 72 h; GDM-1, RAF WT, RAS WT, 3-day; read-out: gIC50
# Outline: as §1
# MES-SA = settings: Homo sapiens, 72 h, RAF WT, RAS WT, 3-day, read-out: gIC50
# Outline: as §1
# SK-BR-3 = settings: Homo sapiens, 72 h; SK-BR-3, RAF WT, RAS WT, 3-day; read-out: gIC50
# Outline: as §1
# TK-10 = settings: Homo sapiens, 72 h; TK-10, RAF WT, RAS WT, 3-day; read-out: gIC50
# Outline: as §1
# HT-3 = settings: Homo sapiens, 72 h; HT-3, RAF WT, RAS WT, 3-day; read-out: gIC50
# Outline: as §1
# NCI-H1792 = settings: Homo sapiens, 72 h; NCI-H1792, RAF WT, RAS WT, 3-day; read-out: gIC50
# Outline: as §1
# BxPc3 = settings: Homo sapiens, BXPC-3, 72 h; BxPc3, RAF WT, RAS WT, 3-day; read-out: gIC50
# Outline: as §1
# J82 = settings: Homo sapiens, 72 h; J82, RAF WT, RAS WT, 3-day; read-out: gIC50
# Outline: as §1
# SH-4 = settings: Homo sapiens, 72 h; SH-4, BRAF(V600E), RAS WT, 3-day; read-out: gIC50
# Outline: as §1
# HN5 = settings: Homo sapiens, 72 h; HN5, RAF WT, RAS WT, 3-day; read-out: gIC50
# Outline: as §1
compound,measurement,setting,value
CC(C)(C)c1nc(-c2cccc(NS(=O)(=O)c3c(F)cccc3F)c2F)c(-c2ccnc(N)n2)s1 [dabrafenib],IC50,SNU-398,> 10 µM
same,IC50,SaOS2,> 10 µM
same,IC50,SNU-1,1500 nM
same,IC50,SK-UT-1,> 10 µM
same,IC50,ES-2,53 nM
same,IC50,U251,> 10 µM
same,IC50,MCF-7,> 10 µM
same,IC50,SNB-19,> 10 µM
same,IC50,OV-90,29 nM
same,IC50,NCI-H226,> 10 µM
same,IC50,647-V,> 10 µM
same,IC50,786-O,> 10 µM
same,IC50,SW-780,> 10 µM
same,IC50,RD,> 10 µM
same,IC50,MC/CAR,1000 nM
same,IC50,CHL-1,> 10 µM
same,IC50,MDA-MB-175 VII,> 10 µM
same,IC50,NCI-H661,> 10 µM
same,IC50,Calu-3,> 10 µM
same,IC50,P3HR-1,> 10 µM
same,IC50,DOTC 24510,> 10 µM
same,IC50,SCC-12,> 10 µM
same,IC50,GDM-1,2000 nM
same,IC50,MES-SA,6.99 µM
same,IC50,SK-BR-3,> 10 µM
same,IC50,TK-10,> 10 µM
same,IC50,HT-3,> 10 µM
same,IC50,NCI-H1792,> 10 µM
same,IC50,BxPc3,> 10 µM
same,IC50,J82,> 10 µM
same,IC50,SH-4,8 nM
same,IC50,HN5,> 10 µM
